{
  "source": "paper PMC9448818",
  "about": "(Translational Psychiatry, 2022)",
  "key": {"CYP2D6": {"tested_on": "CYP2D6", "settings": "cited from earlier work"}, "[1]": {"test": "Dose-adjusted serum concentrations of drug and metabolite (LC-MS/MS) by CYP2C19 and CYP2D6 metabolizer group", "assay_type": "in vivo, human", "settings": "vs NM", "text": "The 16-week study protocol consisted of two phases following screening and baseline visits. […] Blood samples were collected on Weeks 2, 10, and 16 to measure medication levels and on Week 4 for pharmacogenetic analyses. The methods used for the quantification of serum levels of drug and metabolite concentrations is described in the Supplementary Methods.\nSerum concentrations were adjusted for dosage (i.e., ng/mL/mg). Sampling time (i.e., hours since the last dose) was entered as a covariate in the regression models to account for when the medication was taken.\nThe CYP2C19 metabolizer group was not included as a fixed effect covariate, as CYP2C19 is not known to be involved in the metabolism of ARI. […]\nCollection of blood samples and quantification of serum drug and metabolite concentrations Participants self-reported the time at which the last dosage of the study medication was taken during the collection of the blood samples. […]\nmajor metabolites, (S-DCT) and (DHA), were performed at the CAMH Clinical Laboratory using LC-MS/MS technology. Briefly, a mix of deuterated internal standards (Cerilliant) was added to 100 µL of each serum specimen, calibrator (Cerilliant) and quality control (MassCheck Antidepressants/Neuroleptics, Level 1 and Level 2). Proteins were precipitated with 300 µL of 9:1 Acetonitrile:Methanol (Sigma-Aldrich) followed by 5 min centrifugation at 9000 rpm. 25 µL of each supernatant was diluted with 200 µL of 0.1% Formic acid (Sigma-Aldrich) and then analyzed on the LC-MS/MS platform consisting of ThermoFisher TSQ Quantum Ultra mass spectrometer coupled with ThermoFisher Surveyor LC pump and HTC PAL autosampler fitted with a Kinetex F5 2.6 µm, 100 x 2.1 mm column (Phenomenex). Six minute gradient elution with 0.1% Formic Acid (mobile phase A) and Acetonitrile (mobile phase B) was applied. Collision energies ranged from 14 to […]\ncalibration curve ranging from 10 to 1000 ng/mL for each analyte.\nVendor nominal means for quality controls were used to assess the assay accuracy for each of the four analytes […]\nprecision was considered acceptable assay performance.\nData was analyzed with ThemoFisher XCalibur software."}},
  "data": [
    {"smiles": "CNCCC[C@@]1(c2ccc(F)cc2)OCc2cc(C#N)ccc21", "note": "[S-DCT, S-desmethylcitalopram]", "values": [
      {"measurement": "inhibition of CYP2D6 in vitro", "setting": "CYP2D6", "result": "weak inhibitors"},
      {"measurement": "B, S-DCTadj concentrations in serum, CYP2C19 IM+PM", "setting": "[1]; Week 2 (Phase I)", "result": -0.04},
      {"measurement": "B, S-DCTadj concentrations in serum, CYP2C19 RM+UM", "setting": "[1]; Week 2 (Phase I)", "result": 0.04},
      {"measurement": "B, S-DCTadj concentrations in serum, CYP2D6 IM+PM", "setting": "[1]; Week 2 (Phase I)", "result": -0.08},
      {"measurement": "B, S-DCTadj concentrations in serum, CYP2C19 IM+PM", "setting": "[1]; Week 10, ESC+ARI arm", "result": -0.02},
      {"measurement": "B, S-DCTadj concentrations in serum, CYP2C19 RM+UM", "setting": "[1]; Week 10, ESC+ARI arm", "result": 0.14},
      {"measurement": "B, S-DCTadj concentrations in serum, CYP2D6 IM+PM", "setting": "[1]; Week 10, ESC+ARI arm", "result": -0.11},
      {"measurement": "B, S-DCTadj concentrations in serum, CYP2C19 IM+PM", "setting": "[1]; Week 10, ESC-Only arm", "result": -0.12},
      {"measurement": "B, S-DCTadj concentrations in serum, CYP2C19 RM+UM", "setting": "[1]; Week 10, ESC-Only arm", "result": 0.02},
      {"measurement": "B, S-DCTadj concentrations in serum, CYP2D6 IM+PM", "setting": "[1]; Week 10, ESC-Only arm", "result": -0.11},
      {"measurement": "B, S-DCTadj concentrations in serum, CYP2C19 IM+PM", "setting": "[1]; Week 16, ESC+ARI arm", "result": -0.12},
      {"measurement": "B, S-DCTadj concentrations in serum, CYP2C19 RM+UM", "setting": "[1]; Week 16, ESC+ARI arm", "result": 0.08},
      {"measurement": "B, S-DCTadj concentrations in serum, CYP2D6 IM+PM", "setting": "[1]; Week 16, ESC+ARI arm", "result": -0.12},
      {"measurement": "B, S-DCTadj concentrations in serum, CYP2C19 IM+PM", "setting": "[1]; Week 16, ESC-Only arm", "result": -0.09},
      {"measurement": "B, S-DCTadj concentrations in serum, CYP2C19 RM+UM", "setting": "[1]; Week 16, ESC-Only arm", "result": 0.07},
      {"measurement": "B, S-DCTadj concentrations in serum, CYP2D6 IM+PM", "setting": "[1]; Week 16, ESC-Only arm", "result": -0.12}
    ]}
  ]
}
